# Experimental data taken from patent US9216956B2, “Deuterium-enriched 4-hydroxy-5-methoxy-N,1-dimethyl-2-oxo-N-[(4-trifluoro-methyl)phenyl]-1,2-dihydroquinoline-3-carboxamide” (ACTIVE BIOTECH AB, priority 2011, dated 2015).
# Where “and” joins values, the source holds several entries; their conditions need not be identical. Identical values can stand only once.
# Experiments:
# Water solubility = format: physicochemical; settings: for solubility: water, pH 7, aqueous buffer
# From the text: The water solubility of ABR-215050 and of its metabolites also was investigated. It is a well-known fact that metabolism in general aims to transform compounds to more water soluble entities (10), which mostly decreases toxicity but also facilitates renal elimination. […]
# [1] = system: CYP1A1 (AhR mediated induction); assay: TV-cell assay: luciferase gene reporter assay for AhR mediated induction of CYP1A1 in TV101L (HepG2) cells; format: cell-based, human; settings: human, TV101L cells, read-out: Fold induction of luciferase expression
# Description: (§1) ABR-215050 was tested with respect to its CYP1A inducing capability in vitro in a TV-cell assay. This assay is a luciferase gene reporter assay developed for the measurement of AhR (Aryl hydrocarbon Receptor) mediated induction of CYP1A. Human CYP1A promoters and 5′-flanking sequences were cloned into firefly luciferase expression vectors and stably integrated into the human hepatoma cell line, HepG2 (9). The isolated cell line was renamed TV101L.
# (§2) The mechanism for transcription of CYP1A1 involves the binding of the inducer to the Ah receptor followed by a translocation of the ligand-Ah-receptor complex to the nucleus, where it binds to specific enhancer sequences in the 5′-flanking region of the CYP1A1 gene. These sequences are referred to as xenobiotic responsive elements (XREs).
# (§3) A luciferase gene reporter assay was used for the measurement of AhR mediated induction of CYP1A1. Human CYP1A1 promoters and 5′-flanking sequences were cloned into firefly luciferase expression vectors and stably integrated into the human hepatoma cell line, HepG2 (8). The isolated cell line was renamed TV101L.
# (§4) The cells were seeded in 96 well tissue culture plates 24-48 hours prior to treatment with the test compound. After the addition of ABR-215050 at a concentration of 1, 10 and 100 μM, the cells were further incubated for 12-24 hours. The cells were harvested by the addition of lysis buffer followed by a freezing/thawing cycle. An enzymatic assay was used for the determination of luciferase activity.
# (§5) The same assay as used for ABR-215050 was used. The concentrations of ABR-215691 that were used and the results obtained, expressed as fold induction of luciferase expression, are shown in Table 4 and in FIG. 1.
# [2] = system: AhR (Aryl hydrocarbon Receptor) mediated induction of CYP1A1; assay: as above; format: cell-based, human; settings: TV-cell assay
# Description: as §1, §2, §3, §4, §5
# CYP1A1 = assay: In vivo CYP1A1 induction in rat, EROD activity of liver microsomes
# Description: (§6) The in vivo induction of CYP1A1 and CYP1A2 after repeated administration of ABR-215050 and of ABR-215050-dx, respectively, was studied in rat.
# (§7) Test preparations B and C and blank preparation A were made as follows: For preparation B, ABR-215050 was dissolved in NaOH and sterile water at a concentration of 0.5 mg/mL. The pH of the solution was adjusted to pH 7.4-8.5. Preparation C was made in the same way, using ABR-215050-dx. Preparation A was a blank containing only water. The preparations were stored in a refrigerator for a maximum of one week before use.
# (§8) On arrival at the laboratory, the test animals were 9 weeks old Sprague Dawley male rats having a body weight of 250 g. They were divided into 3 groups and were allowed to acclimatize for at least 7 days before the test. During the whole acclimatization and test period, the animals received water and feed (Labfor R70, form Kimstad, Sweden) ad libitum, and were kept under a 12 hours dark/12 hours light cycle, at a temperature of 20±2° C. and a relative humidity of 50±15%.
# (§9) Before administration of any test preparation, the body weight of each animal was measured and the individual dose to be administered to an animal was determined based on the weight of the animal. Administration was performed perorally during 4 days, cf.
# (§10) At 24 h after administration of the final dose, the animals were weighed and from each animal a final blood sample was withdrawn for a pharmacokinetic analysis. The animals then were euthanized and from each one the liver was withdrawn, weighed, and immediately frozen in crushed dry ice. The livers then were stored at −70° C. until preparation of microsomes.
# (§11) Microsomes were prepared according to the method M-0287 “Preparation of subcellular fractions from animal tissues” and then kept at −70° C. until analysis.
# (§12) The total protein concentration of the microsomal fraction was determined according to the method M-0289 “Determination of Protein according to Hartree”.
# [3] = In vivo pharmacokinetics in rat: plasma levels of parents and amide-N demethyl metabolite after 1:1 mixture; settings: plasma, oral, peroral 2.5 mg/kg of each compound (1:1 mixture), read-out: Plasma level
# From the text: Therefore, the pharmacokinetic characteristics of the amide-N methyl deuterated ABR-215050 (herein below referred to as ABR-215050-dx), wherein the amide-N methyl moiety was tri-deuterated, compared to the non-deuterated parent compound were studied in rat. […] In other words: relative to ABR-215050, the in vivo formation of ABR-215691 was reduced to only 25% when ABR-215050-dx was used.
# A deuterated (also referred to as deuterium-enriched) ABR-215050 was synthesized, wherein the amide-N methyl moiety was trideuterated (ABR-215050-dx). This deuterated compound was diluted with non-deuterated ABR-215050 to a molar ratio of 1:1. The 1:1 equivalent molar mixture was administrated to rats in an in vivo experiment. Because of additional 13-carbon labeling in the quinoline scaffold, the formed amide-N demethyl metabolites could be measured selectively by means of HPLC-MS (High performance Liquid Chromatography with Mass Spectrometric detection). In Table 5, the plasma levels of ABR-215050-dx and ABR-215050 (in nM) measured in 4 different rats are shown, as well as the ratio of these two compounds.
# [4] = cited from earlier work
# [5] = phase II, cited from earlier work
# CYP1A2 = assay: In vivo CYP1A2 induction in rat, MROD activity of liver microsomes
# Description: as §6, §7, §8, §9, §10, §11, §12
# [6] = group mean, 1 mg/kg perorally days 1-4
# [7] = individual rat, 1 mg/kg perorally days 1-4, liver microsomes 24 h after final dose, 1 mg/kg
# [8] = individual rat, versus water group
compound,measurement,setting,value
COc1cccc2c1c(O)c(C(=O)Nc1ccc(C(F)(F)F)cc1)c(=O)n2C [ABR-215691],water solubility (in words),Water solubility,extremely low water solubility
same,solubility,Water solubility,< 0.01 µg/mL
same,fold induction at 0.01 µM,[1]; 0.01 μM,15.1
same,fold induction at 0.1 µM,[1]; 0.1 μM,14.9
same,fold induction at 1 µM,[1]; 12-24 hours,21.3
same,CYP1A induction (in words),[2],substantial CYP1A inducing capacity
"COc1cccc2c1c(O)c(C(=O)N(C)c1ccc(C(F)(F)F)cc1)c(=O)n2C [ABR-215050, 4-hydroxy-5-methoxy-N,1-dimethyl-2-oxo-N-[(4-trifluoromethyl)phenyl]-1,2-dihydroquinoline-3-carboxamide, reference compound]","CYP1A1 activity (EROD), Mean",CYP1A1; [6],1891 pmol/mg prot/min
same,mean fold induction of CYP1A1,"CYP1A1; group mean, versus water group",42
same,CYP1A1 activity (EROD),CYP1A1; [7],1342 pmol/mg prot/min and 2440 pmol/mg prot/min
same,CYP1A1 Fold induction,CYP1A1; [8],30 and 54
same,concentration at 1 h,"[3]; rat No 1, 1 h",13.8 µM
same,concentration at 2 h,"[3]; rat No 2, 2 h",13.9 µM
same,concentration at 3 h,"[3]; rat No 3, 3 h",7.38 µM
same,concentration at 4 h,"[3]; rat No 4, 4 h",17.8 µM
same,steady state plasma levels,[4]; 1-10 mg/kg/day via drinking water,0.4 to 1 µM
same,plasma half-life,[4]; in vivo,3.4 h
same,tolerability,[5]; patients,generally well tolerated
same,median progression free survival,"[5]; patients, placebo 3.2 months (p=0.0009)",7.6 months
same,fraction of patients with disease progression during the six month period,[5]; placebo 66% (p<0.0001),31%
same,"CYP1A2 activity (MROD), Mean",CYP1A2; [6],334 pmol/mg prot/min
same,mean fold induction of CYP1A2,"CYP1A2; group mean, versus water group",17
same,CYP1A2 activity (MROD),CYP1A2; [7],311 pmol/mg prot/min and 357 pmol/mg prot/min
same,CYP1A2 Fold induction,CYP1A2; [8],16 and 18
same,solubility,Water solubility,500 µg/mL
same,fold induction at 1 µM,[1]; 12-24 hours,5.2
same,fold induction at 10 µM,"[1]; 10 μM, 12-24 hours",7.3
same,fold induction at 100 µM,"[1]; 100 μM, 12-24 hours",11.8
same,CYP1A induction (in words),[2],did not induce CYP1A
